Measurements as given in the NIST ThermoML archive (doi:10.1021/je700193w).

Assays:
[1] = 101.33 kPa, Liquid
[2] = xn = mol fraction of the nth substance listed; details: 101 kPa, Liquid
[3] = excess molar enthalpy (molar enthalpy of mixing); xn = mol fraction of the nth substance listed; details: 101 kPa, Liquid

C=C1CCC2CC1C2(C)C (stereo not drawn) [β-pinene]
[1]
Details	mass density [kg/m3]	speed of sound [m/s]
283.15 K	879.07	1354.7
298.15 K	867.11	1295.1
303.15 K	863.17	1278.6
313.15 K	854.87	1236.3
323.15 K	846.75	1200.7

C=C1CCC2CC1C2(C)C (stereo not drawn) [β-pinene] + CC(C)(C)O
Details	excess molar enthalpy [kcal/mol]	mass density [kg/m3]	speed of sound [m/s]
[2], 303.15 K, x1 = 0.0534	–	782.04	1110
[2], 303.15 K, x1 = 0.1048	–	787.79	1118.6
[2], 303.15 K, x1 = 0.2017	–	798.21	1135.6
[2], 303.15 K, x1 = 0.2814	–	806.31	1150.6
[2], 303.15 K, x1 = 0.4041	–	817.92	1173.7
[2], 303.15 K, x1 = 0.5042	–	826.75	1192.6
[2], 303.15 K, x1 = 0.6025	–	834.76	1210.5
[2], 303.15 K, x1 = 0.7042	–	842.46	1228.3
[2], 303.15 K, x1 = 0.8048	–	849.62	1244.8
[2], 303.15 K, x1 = 0.9007	–	856.11	1260.2
[2], 303.15 K, x1 = 0.9495	–	859.38	1268.7
[2], 313.15 K, x1 = 0.0561	–	771.94	1066.4
[2], 313.15 K, x1 = 0.108	–	777.84	1076
[2], 313.15 K, x1 = 0.2041	–	788.5	1094.3
[2], 313.15 K, x1 = 0.2996	–	798.32	1112.7
[2], 313.15 K, x1 = 0.4028	–	808.25	1132.3
[2], 313.15 K, x1 = 0.5039	–	817.37	1151
[2], 313.15 K, x1 = 0.5964	–	825.06	1167.1
[2], 313.15 K, x1 = 0.6957	–	832.77	1183.8
[2], 313.15 K, x1 = 0.7979	–	840.16	1201.1
[2], 313.15 K, x1 = 0.893	–	846.86	1216.7
[2], 313.15 K, x1 = 0.9475	–	850.67	1226.2
[2], 323.15 K, x1 = 0.0554	–	761.34	1027.2
[2], 323.15 K, x1 = 0.1025	–	766.94	1036.7
[2], 323.15 K, x1 = 0.2016	–	–	1056.6
[2], 323.15 K, x1 = 0.2032	–	778.49	–
[2], 323.15 K, x1 = 0.3022	–	788.82	1076.4
[2], 323.15 K, x1 = 0.3988	–	798.4	1095.2
[2], 323.15 K, x1 = 0.5053	–	808.25	1115.2
[2], 323.15 K, x1 = 0.5996	–	816.33	1132.3
[2], 323.15 K, x1 = 0.7001	–	824.27	1149.5
[2], 323.15 K, x1 = 0.7941	–	831.23	–
[2], 323.15 K, x1 = 0.799	–	–	1165.8
[2], 323.15 K, x1 = 0.8861	–	–	1180.1
[2], 323.15 K, x1 = 0.8905	–	838.16	–
[2], 323.15 K, x1 = 0.9367	–	–	1188.6
[2], 323.15 K, x1 = 0.9453	–	842.1	–
[3], 303.15 K, x1 = 0.0529	0.0559	–	–
[3], 303.15 K, x1 = 0.109	0.102	–	–
[3], 303.15 K, x1 = 0.2159	0.162	–	–
[3], 303.15 K, x1 = 0.3175	0.192	–	–
[3], 303.15 K, x1 = 0.4299	0.198	–	–
[3], 303.15 K, x1 = 0.5331	0.201	–	–
[3], 303.15 K, x1 = 0.6229	0.194	–	–
[3], 303.15 K, x1 = 0.7198	0.175	–	–
[3], 303.15 K, x1 = 0.8249	0.15	–	–
[3], 303.15 K, x1 = 0.9096	0.114	–	–
[3], 303.15 K, x1 = 0.9686	0.0566	–	–
[3], 313.15 K, x1 = 0.0529	0.0538	–	–
[3], 313.15 K, x1 = 0.109	0.104	–	–
[3], 313.15 K, x1 = 0.2159	0.179	–	–
[3], 313.15 K, x1 = 0.3175	0.217	–	–
[3], 313.15 K, x1 = 0.4299	0.229	–	–
[3], 313.15 K, x1 = 0.5331	0.238	–	–
[3], 313.15 K, x1 = 0.6229	0.235	–	–
[3], 313.15 K, x1 = 0.7198	0.22	–	–
[3], 313.15 K, x1 = 0.8249	0.184	–	–
[3], 313.15 K, x1 = 0.9096	0.139	–	–
[3], 313.15 K, x1 = 0.9686	0.0621	–	–
[3], 323.15 K, x1 = 0.0529	0.102	–	–
[3], 323.15 K, x1 = 0.109	0.141	–	–
[3], 323.15 K, x1 = 0.2159	0.201	–	–
[3], 323.15 K, x1 = 0.3175	0.236	–	–
[3], 323.15 K, x1 = 0.4299	0.251	–	–
[3], 323.15 K, x1 = 0.5331	0.263	–	–
[3], 323.15 K, x1 = 0.6229	0.262	–	–
[3], 323.15 K, x1 = 0.7198	0.248	–	–
[3], 323.15 K, x1 = 0.8249	0.199	–	–
[3], 323.15 K, x1 = 0.9096	0.147	–	–
[3], 323.15 K, x1 = 0.9686	0.0528	–	–
